How the values were obtained:
[1] = Acute toxicity (LD50, Behrens-Karber method); format: in vivo, ICR mice; conditions: mouse, in vivo, ip, mortality during 30 days
Experimental: Test compounds, dissolved or suspended in 0.5% aqueous CMC, were each intraperitoneally administered to ICR mice in a dose of 0.1 ml per 10 g body weight. LD50 (mg/kg) value of each test compound was calculated from the mortality of mice during 30 days by the Behrens-Karber method.

Leukemia L1210 = assay: Activity against Leukemia L1210, intraperitoneal, increase in life span of mice; format: in vivo, female mice (BDF1 family); conditions: for ED (maximum ILS) / ED30: Mus musculus, L1210, ip, ip once a day for 5 successive days; for ED (maximum ILS): daily dosage giving maximum increase of life span, read-out: O.D. (optimum dosage); for ED30: daily dosage increasing average survival days by 30%, read-out: ILS30; for Survivors after 60 days / Max. ILS % / Therapeutic ratio TR: ip; for Survivors after 60 days: 6-membered group; for Max. ILS %: 60-day observation, versus control; for Therapeutic ratio TR: O.D./ILS30
Method in brief: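 Dosing started 24 h after ip implantation of 1×10^5 L1210 cells into groups of 6 female BDF1 mice, by ip or oral route daily for 5 consecutive days. Survival was followed for 60 days; increase in life span was scored against untreated mice, with therapeutic ratio from optimum dose over ILS30 dose.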

| Compound | LD50 at 720 h [1] [mg/kg] | ED (maximum ILS) (Leukemia L1210) [mg/kg] | ED30 (Leukemia L1210) [mg/kg] | Survivors after 60 days (Leukemia L1210) | Max. ILS % (Leukemia L1210) [%] | Therapeutic ratio TR (Leukemia L1210) |
| --- | --- | --- | --- | --- | --- | --- |
| COCCCN(C(=O)N(CCCl)N=O)[C@H]1CO[C@@H](OCC(C)C)[C@H](O)[C@H]1O [Compound 154, 3-(3-methoxy-n-propyl)-3-(isobutyl α-L-arabinopyranose-4-yl)-1-(2-chloroethyl)-1-nitrosourea] | 500 | 160 | 2.85 | 5/6 | > 620 | 56.1 |
| COc1ccc(CN(C[C@H]2O[C@H](OC3CCCCC3)[C@H](O)[C@@H](O)[C@H]2O)C(=O)N(CCCl)N=O)cc1 [Compound 104, 3-(p-methoxybenzyl)-3-(cyclohexyl α-D-galactopyranose-6-yl)-1-(2-chloroethyl)-1-nitrosourea] | 630 | 200 | 6.61 | 3/6 | > 325 | 30.3 |
| CCCN(C[C@H]1O[C@H](OC2CCCCC2)[C@H](O)[C@@H](O)[C@H]1O)C(=O)N(CCCl)N=O [Compound 98, 3-n-propyl-3-(cyclohexyl α-D-galactopyranose-6-yl)-1-(2-chloroethyl)-1-nitrosourea] | 600 | 200 | 6.45 | 3/6 | > 350 | 31.0 |
| COCCCO[C@@H]1O[C@H](CN(CCCOC)C(=O)N(CCCl)N=O)[C@@H](O)[C@H]1O [Compound 168, 3-(3-methoxy-n-propyl)-3-(3-methoxy-n-propyl β-D-ribofuranose-5-yl)-1-(2-chloroethyl)-1-nitrosourea] | 500 | 160 | 3.3 | 4/6 | > 425 | 48.5 |
| CCCCO[C@H]1O[C@H](CO)[C@H](O)[C@H](O)[C@H]1N(C)C(=O)N(CCCl)N=O [Compound 118, 3-methyl-3-(n-butyl α-D-galactopyranose-2-yl)-1-(2-chloroethyl)-1-nitrosourea] | 400 | 130 | 4.45 | 3/6 | > 350 | 29.2 |
| COc1ccc(CN(C[C@H]2O[C@H](OCC(C)C)[C@H](O)[C@@H](O)[C@@H]2O)C(=O)N(CCCl)N=O)cc1 [Compound 21, 3-(p-methoxybenzyl)-3-(isobutyl α-D-glucopyranose-6-yl)-1-(2-chloroethyl)-1-nitrosourea] | 585 | 200 | 5.45 | 3/6 | > 360 | 36.7 |
| CCOCCO[C@H]1O[C@H](CO)[C@H](N(CC(C)C)C(=O)N(CCCl)N=O)[C@H](O)[C@H]1O [Compound 131, 3-isobutyl-3-(2-ethoxyethyl α-D-galacropyranose-4-yl)-1-(2-chloroethyl)-1-nitrosourea] | 565 | 160 | 3.98 | 4/6 | > 430 | 40.2 |
| COCCCOC1OC(CO)C(O)C(O)C1N(CC(C)C)C(=O)N(CCCl)N=O [Compound 68, 3-isobutyl-3-(3-methoxy-n-propyl α-D-glucopyranose-2-yl)-1-(2-chloroethyl)-1-nitrosourea] | 500 | 170 | 4.43 | 4/6 | > 425 | 38.4 |
| CCC(C)OC1OC(CO)C(O)C(N(CC(C)C)C(=O)N(CCCl)N=O)C1O [Compound 84, 3-isobutyl-3-(sec-butyl α-D-glucopyranose-3-yl)-1-(2-chloroethyl)-1-nitrosourea] | 695 | 220 | 5.8 | 3/6 | > 355 | 37.9 |
| CC(C)(C)N(C[C@H]1O[C@H](OC(c2ccccc2)C2CC2)[C@H](O)[C@@H](O)[C@@H]1O)C(=O)N(CCCl)N=O (stereo partly drawn) [Compound 201, 3-tert-butyl-3-(α-cyclopropylbenzyl α-D-glucopyranose-6-yl)-1-(2-chloroethyl)-1-nitrosourea] | 460 | 150 | 4.78 | 6/6 | > 700 | 31.4 |

From patent publication US4593090A, “Novel nitrosourea compounds, method for preparing same, and pharmaceutical composition containing same” (Gogo Kimura, priority 1981, dated 1986)
